In ChEMBL document CHEMBL4138123, “Design, synthesis and biological evaluation of novel pyrazolochalcones as potential modulators of PI3K/Akt/mTOR pathway and inducers of apoptosis in breast cancer cells” (Eur J Med Chem, 2017):

Columns and labels:
Type in all cases: functional
[1] = tested on: IGROV-1; test: Cytotoxicity against human IGROV1 cells assessed as cell growth at 100 uM after 48 hrs by sulforhodamine B assay relative to control; conditions: IGROV-1, 48 h, read-out: Activity
[2] = tested on: CCRF-CEM; test: Cytotoxicity against human CCRF-CEM cells assessed as cell growth at 1 uM after 48 hrs by sulforhodamine B assay relative to control; conditions: read-out: Activity
[3] = tested on: NCI-H226; test: Cytotoxicity against human NCI-H226 cells assessed as cell growth at 0.01 uM after 48 hrs by sulforhodamine B assay relative to control; conditions: NCI-H226, 48 h, read-out: Activity
[4] = tested on: K562; test: Cytotoxicity against human K562 cells assessed as cell growth at 10 uM after 48 hrs by sulforhodamine B assay relative to control; conditions: K562, 48 h, read-out: Activity
[5] = tested on: SK-MEL-5; test: Cytotoxicity against human SK-MEL-5 cells assessed as cell growth at 0.1 uM after 48 hrs by sulforhodamine B assay relative to control; conditions: SK-MEL-5, 48 h, read-out: Activity
[6] = tested on: NCI-H226; test: Cytotoxicity against human NCI-H226 cells assessed as cell growth at 10 uM after 48 hrs by sulforhodamine B assay relative to control; conditions: NCI-H226, 48 h, read-out: Activity
[7] = tested on: KM12; test: Cytotoxicity against human KM12 cells assessed as growth inhibition after 48 hrs by sulforhodamine B assay; conditions: KM12, 48 h
[8] = tested on: HT-29; test: Cytotoxicity against human HT-29 cells assessed as cell growth at 100 uM after 48 hrs by sulforhodamine B assay relative to control; conditions: HT-29, 48 h, read-out: Activity
[9] = tested on: M14; test: Cytotoxicity against human M14 cells assessed as cell growth at 1 uM after 48 hrs by sulforhodamine B assay relative to control; conditions: M14, 48 h, read-out: Activity
[10] = tested on: NCI-H460; test: Cytotoxicity against human NCI-H460 cells assessed as cell growth at 10 uM after 48 hrs by sulforhodamine B assay relative to control; conditions: NCI-H460, 48 h, read-out: Activity
[11] = tested on: HL-60(TB); test: Cytotoxicity against human HL-60(TB) cells assessed as cell growth at 0.01 uM after 48 hrs by sulforhodamine B assay relative to control; conditions: HL-60, 48 h, read-out: Activity
[12] = tested on: Hs-578T; test: Cytotoxicity against human Hs 578T cells assessed as growth inhibition after 48 hrs by sulforhodamine B assay
[13] = tested on: COLO 205; test: Cytotoxicity against human COLO205 cells assessed as cell growth at 0.01 uM after 48 hrs by sulforhodamine B assay relative to control; conditions: COLO 205, 48 h, read-out: Activity
[14] = tested on: SF-539; test: Cytotoxicity against human SF539 cells assessed as cell growth at 0.1 uM after 48 hrs by sulforhodamine B assay relative to control; conditions: SF-539, 48 h, read-out: Activity
[15] = tested on: IGROV-1; test: Cytotoxicity against human IGROV1 cells assessed as cell growth at 1 uM after 48 hrs by sulforhodamine B assay relative to control; conditions: IGROV-1, 48 h, read-out: Activity
[16] = tested on: HOP-62; test: Cytotoxicity against human HOP62 cells assessed as growth inhibition after 48 hrs by sulforhodamine B assay; conditions: HOP-62, 48 h
[17] = tested on: OVCAR-3; test: Cytotoxicity against human OVCAR3 cells assessed as cell growth at 0.01 uM after 48 hrs by sulforhodamine B assay relative to control; conditions: OVCAR-3, 48 h, read-out: Activity
[18] = tested on: RXF 393; test: Cytotoxicity against human RXF393 cells assessed as cell growth at 10 uM after 48 hrs by sulforhodamine B assay relative to control; conditions: RXF 393, 48 h, read-out: Activity
[19] = tested on: UO-31; test: Cytotoxicity against human UO31 cells assessed as cell growth at 100 uM after 48 hrs by sulforhodamine B assay relative to control; conditions: UO-31, 48 h, read-out: Activity
[20] = tested on: M14; test: Cytotoxicity against human M14 cells assessed as cell growth at 10 uM after 48 hrs by sulforhodamine B assay relative to control; conditions: M14, 48 h, read-out: Activity
[21] = tested on: 786-0; test: Cytotoxicity against human 786-0 cells assessed as cell growth at 1 uM after 48 hrs by sulforhodamine B assay relative to control; conditions: 786-0, 48 h, read-out: Activity
[22] = tested on: Malme-3M; test: Cytotoxicity against human MALME-3M cells assessed as cell growth at 1 uM after 48 hrs by sulforhodamine B assay relative to control; conditions: read-out: Activity
[23] = tested on: OVCAR-8; test: Cytotoxicity against human OVCAR8 cells assessed as cell growth at 0.1 uM after 48 hrs by sulforhodamine B assay relative to control; conditions: OVCAR-8, 48 h, read-out: Activity
[24] = tested on: K562; test: Cytotoxicity against human K562 cells assessed as cell growth at 100 uM after 48 hrs by sulforhodamine B assay relative to control; conditions: K562, 48 h, read-out: Activity
[25] = tested on: MCF7; test: Cytotoxicity against human MCF7 cells assessed as cell growth at 0.01 uM after 48 hrs by sulforhodamine B assay relative to control; conditions: MCF7, 48 h, read-out: Activity
[26] = tested on: BT-549; test: Cytotoxicity against human BT549 cells assessed as cell growth at 0.1 uM after 48 hrs by sulforhodamine B assay relative to control; conditions: BT-549, 48 h, read-out: Activity
[27] = tested on: K562; test: Cytotoxicity against human K562 cells assessed as cell growth at 1 uM after 48 hrs by sulforhodamine B assay relative to control; conditions: K562, 48 h, read-out: Activity
[28] = tested on: HCC 2998; test: Cytotoxicity against human HCC2998 cells assessed as growth inhibition after 48 hrs by sulforhodamine B assay; conditions: HCC 2998, 48 h
[29] = tested on: CCRF-CEM; test: Cytotoxicity against human CCRF-CEM cells assessed as cell growth at 10 uM after 48 hrs by sulforhodamine B assay relative to control; conditions: read-out: Activity
[30] = tested on: NCI/ADR-RES; test: Cytotoxicity against human NCI/ADR-RES cells assessed as cell growth at 1 uM after 48 hrs by sulforhodamine B assay relative to control; conditions: read-out: Activity
[31] = tested on: OVCAR-3; test: Cytotoxicity against human OVCAR3 cells assessed as cell growth at 0.1 uM after 48 hrs by sulforhodamine B assay relative to control; conditions: OVCAR-3, 48 h, read-out: Activity
[32] = tested on: OVCAR-3; test: Cytotoxicity against human OVCAR3 cells assessed as cell growth at 100 uM after 48 hrs by sulforhodamine B assay relative to control; conditions: OVCAR-3, 48 h, read-out: Activity
[33] = tested on: UO-31; test: Cytotoxicity against human UO31 cells assessed as cell growth at 10 uM after 48 hrs by sulforhodamine B assay relative to control; conditions: UO-31, 48 h, read-out: Activity
[34] = tested on: NCI-H460; test: Cytotoxicity against human NCI-H460 cells assessed as cell growth at 0.1 uM after 48 hrs by sulforhodamine B assay relative to control; conditions: NCI-H460, 48 h, read-out: Activity
[35] = tested on: DU-145; test: Cytotoxicity against human DU145 cells assessed as cell growth at 0.1 uM after 48 hrs by sulforhodamine B assay relative to control; conditions: DU-145, 48 h, read-out: Activity
[36] = tested on: SR; test: Cytotoxicity against human SR cells assessed as growth inhibition after 48 hrs by sulforhodamine B assay; conditions: for CC50: read-out: LC50 (the source's name)
[37] = tested on: Malme-3M; test: Cytotoxicity against human MALME-3M cells assessed as cell growth at 100 uM after 48 hrs by sulforhodamine B assay relative to control; conditions: read-out: Activity

For `COc1cc2c(cc1OC)C(=O)/C(=C/c1cc(-c3ccc4c(c3)OCO4)n[nH]1)C2`, the growth at 100 µM [1] was -82%, the growth at 1 µM [2] was 55% and the growth at 0.01 µM [3] was 97%. The growth at 10 µM [4] was 2%, the growth at 0.1 µM [5] was 93% and the growth at 10 µM [6] was -72%. The GI50 [7] was 1.29 µM, the LC50 [7] was 5.75 µM and the TGI [7] was 2.73 µM. It also gave a growth at 100 µM [8] of -70%, a growth at 1 µM [9] of 98% and a growth at 10 µM [10] of -59%. The growth at 0.01 µM [11] was 90%, the GI50 [12] was 2.61 µM and the LC50 [12] was over 100 µM. The TGI [12] was 8.08 µM, the growth at 0.01 µM [13] was 98% and the growth at 0.1 µM [14] was 92%. The growth at 1 µM [15] was 86%, the GI50 [16] was 1.53 µM and the LC50 [16] was 5.72 µM. It also gave a TGI [16] of 2.96 µM, a growth at 0.01 µM [17] of 101% and a growth at 10 µM [18] of -78%. It also gave a growth at 100 µM [19] of -95%, a growth at 10 µM [20] of -87% and a growth at 1 µM [21] of 88%. The growth at 1 µM [22] was 88%, the growth at 0.1 µM [23] was 98% and the growth at 100 µM [24] was 4%. The growth at 0.01 µM [25] was 96%, the growth at 0.1 µM [26] was 91% and the growth at 1 µM [27] was 62%. For the same compound, the GI50 [28] was 1.88 µM, the LC50 [28] was 6.29 µM and the TGI [28] was 3.44 µM. The growth at 10 µM [29] was -44%, the growth at 1 µM [30] was 86% and the growth at 0.1 µM [31] was 101%. For the same compound, the growth at 100 µM [32] was -90%, the growth at 10 µM [33] was -91% and the growth at 0.1 µM [34] was 101%. For the same compound, the growth at 0.1 µM [35] was 101%, the GI50 [36] was 0.62 µM and the TGI [36] was 4.11 µM. For the same compound, the CC50 [36] was over 100 µM and the growth at 100 µM [37] was -81%.
Compound `COc1ccc(C(=O)/C=C/c2cc(-c3cc(OC)c(OC)c(OC)c3)n[nH]2)cc1OC` has a growth at 100 µM [1] of -73%, a growth at 1 µM [2] of 39% and a growth at 0.01 µM [3] of 98%. The growth at 10 µM [4] was -13%, the growth at 0.1 µM [5] was 96% and the growth at 10 µM [6] was -81%. It also gave an LC50 [7] of 5.43 µM, a TGI [7] of 2.41 µM and a growth at 100 µM [8] of -81%. It also gave a growth at 1 µM [9] of 94%, a growth at 10 µM [10] of -64% and a growth at 0.01 µM [11] of 103%. For the same compound, the LC50 [12] was over 100 µM, the TGI [12] was 8.2 µM and the growth at 0.01 µM [13] was 107%. The growth at 0.1 µM [14] was 98%, the growth at 1 µM [15] was 96% and the LC50 [16] was 5.35 µM. It also gave a TGI [16] of 2.77 µM, a growth at 0.01 µM [17] of 100% and a growth at 10 µM [18] of -98%. It also gave a growth at 100 µM [19] of -96%, a growth at 10 µM [20] of -72% and a growth at 1 µM [21] of 74%. It also gave a growth at 1 µM [22] of 106%, a growth at 0.1 µM [23] of 92% and a growth at 100 µM [24] of -15%. The growth at 0.01 µM [25] was 89%, the growth at 0.1 µM [26] was 90% and the growth at 1 µM [27] was 75%. The LC50 [28] was 6.7 µM, the TGI [28] was 3.78 µM and the growth at 10 µM [29] was -26%. For the same compound, the growth at 1 µM [30] was 90%, the growth at 0.1 µM [31] was 100% and the growth at 100 µM [32] was -84%. It also gave a growth at 10 µM [33] of -97%, a growth at 0.1 µM [34] of 101% and a growth at 0.1 µM [35] of 101%. It also gave a TGI [36] of over 100 µM, a CC50 [36] of over 100 µM and a growth at 100 µM [37] of -81%.
